Laboratory results: paper PMC11790708, “Clioquinol inhibits angiogenesis by promoting VEGFR2 degradation and synergizes with AKT inhibition to suppress triple-negative breast cancer vascularization” (Angiogenesis, 2025)

Target: T1, VEGFR2 (Homo sapiens, UniProt P35968)
T1 construct: gene KDR; recombinant VEGFR2 (amino acids 789 to end)
Experiment: cell-free ADP-Glo kinase assay at […] ATP, with ATP competition at […] ATP
Format: biochemical

T1 sequence (P35968 789-1356): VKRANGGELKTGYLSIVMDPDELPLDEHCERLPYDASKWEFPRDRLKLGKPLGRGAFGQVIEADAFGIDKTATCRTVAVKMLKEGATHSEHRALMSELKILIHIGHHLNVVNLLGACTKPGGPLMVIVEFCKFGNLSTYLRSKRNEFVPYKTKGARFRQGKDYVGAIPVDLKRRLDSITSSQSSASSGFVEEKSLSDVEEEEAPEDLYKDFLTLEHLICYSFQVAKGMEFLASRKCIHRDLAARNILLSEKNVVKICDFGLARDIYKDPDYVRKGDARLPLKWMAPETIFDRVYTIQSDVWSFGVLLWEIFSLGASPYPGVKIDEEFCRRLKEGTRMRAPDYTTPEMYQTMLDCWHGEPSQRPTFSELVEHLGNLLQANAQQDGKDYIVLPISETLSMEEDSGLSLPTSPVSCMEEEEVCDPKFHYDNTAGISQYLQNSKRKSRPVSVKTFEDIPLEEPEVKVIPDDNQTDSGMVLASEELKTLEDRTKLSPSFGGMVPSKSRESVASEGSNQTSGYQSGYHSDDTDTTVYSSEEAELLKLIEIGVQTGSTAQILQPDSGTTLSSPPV

Question: `Oc1c(I)cc(Cl)c2cccnc12` [clioquinol] was tested. Which IC50 did it give?
Answer: Its IC50 is 34.6 µM.
